Reference: patent US20060165823A1, “Topical delivery agents and methods for making and using therm” (priority 2003, published 2006)

Test system: hair follicles and sebaceous glands of the dorsal skin
Assay: Delivery of Nile Red fluorescent dye into hair follicles and sebaceous glands by delivery agents
Design: species or system Sprague Dawley rat; Fluorescence intensity: key to the marks not given beside the values
Settings: rat, in vivo
Description: Mixtures of Nile Red fluorescent dye, were from Sigma Chemical Co., St. […] All mixtures were filtered through a 0.2 micron Millipore filter, available from Millipore Corp., Bedford, Mass., to remove any undissolved Nile Red dye. […] Before the application of formulations, the hair of the rats was gently clipped with an electric clipper on their dorsal areas. […] The amount of Nile Red delivered is evidenced by the intensity of the orange-red fluorescence depicted in the photomicrographs. […] Orange-red fluorescence due to Nile Red dye on the skin surface (stratum corneum) was not evaluated.

Fluorescence intensity | Compound | Penetration of the skin and distribution in the pilosebaceous unit
+++ | C[S+](C)[O-] [DMSO, Dimethyl Sulfoxide, reference compound] | 
++++ | Jojoba Oil | can penetrate the skin through the opening of the hair follicle and distribute itself throughout the hair shaft and sebaceous gland
